Assay results taken from patent US20190142954A1, “POLYMER-BONDED CA4 PHARMACEUTICAL COMPOUND AND PREPARATION METHOD THEREFOR” (priority 2016, published 2019).

Tests used:
[1] = system: C26 cells; assay: Tumor inhibition effect of polymer-bonded CA4 pharmaceutical compound; assay type: in vivo; details: C26 tumor in Balb/C mice, 50.0 mg CA4/kg on day 1, 5 and 9, observation until day 17
Procedure: The administration dosage was 50.0 mg CA4/kg body weight. Tumor was measured 3 times per week and body weights of mice were recorded, and observation was not stopped until day 17.

[2] = system: C26 murine colon cancer cells; assay: Therapeutic effect on tumor by single administration (pathological H&E analysis); assay type: in vivo; details: C26 tumor in Balb/C mice, tail vein injection, 50 mg CA4/kg, 72 hours
Procedure: 6 Balb/C mice (5-6 weeks old, female, body weight of approximately 20 g) were utilized, and C26 murine colon cancer cells were seeded at the right underarm at 2.0×10^6/mouse, respectively. […] The administration dosage was 50 mg CA4/kg body weight. The mice were sacrificed after 72 hours. Tumor was collected, and pathological H&E analysis was performed.

Structure (SMILES): COc1ccc(/C=C\c2cc(OC)c(OC)c(OC)c2)cc1OP(=O)([O-])[O-].[Na+].[Na+] [CA4P, Combretastatin A4 phosphate disodium]
- tumor inhibition rate [1]: 24.0%
- tumor pathological analysis after single administration [2]: a wide range of recurrence occurred in the tumor
